IC50 data for 50 compounds are collected here from ChEMBL document CHEMBL3600310 (J Med Chem, 2015).

Molecules are shown by their SMILES.

By IC50 is commonly meant the midpoint of a concentration-inhibition curve.

What all share (assay type): functional, cell-based
The test system of experiment [1] is A549. The experiment can be described thus: Cytotoxicity against human A549 cells after 72 hrs by MTT assay. The following applies: A549, 72 h. (Formazan colour is commonly taken as a measure of viable cells.)
Experiment [2] has as its system HCT-116. In words: Cytotoxicity against human HCT116 cells after 72 hrs by MTT assay. The following applies: HCT-116, 72 h.
Experiment [3] relates to MDA-MB-435. The experiment can be described thus: Cytotoxicity against human MDA-MB-435 cells after 72 hrs by MTT assay. The settings on record: MDA-MB-435, 72 h.

For the compound `CN1c2ccccc2C(=O)N2CCc3c([nH]c4ccccc34)[C@@H]21` [EVODIAMINE], the half-maximal inhibitory concentration (IC50) was over 200 µM in experiment [1], over 200 µM in experiment [2] and 22.1 µM in experiment [3].
Take `COc1ccc2[nH]c3c(c2c1)CCN1C(=O)c2cc4ccccc4cc2OC31` (stereo not given): the IC50 in experiment [1] was over 200 µM; in experiment [2], 58 µM; in experiment [3], 34.8 µM.
With `CN1c2ccoc2C(=O)N2CCc3c([nH]c4ccccc34)C21` (stereo not given), the results for the IC50 in experiment [1], in experiment [2] and in experiment [3] were over 200 µM, 178 µM and 182 µM, respectively.
For the compound `COc1ccc2[nH]c3c(c2c1)CCN1C(=O)c2cc(Br)ccc2OC31` (stereo not given), the IC50 in experiment [1] was 2.6 µM; in experiment [2], 5.4 µM; in experiment [3], 7.1 µM.
For `COc1ccc2c(c1)C(=O)N1CCc3c([nH]c4ccccc34)C1O2` (stereo not given) the same measures were 14.8 µM, 25.6 µM and over 200 µM.
Turning to `CN1c2ccsc2C(=O)N2CCc3c([nH]c4ccc(O)cc34)C21` (stereo not given), the half-inhibitory concentration (IC50) in experiment [1] was 15.8 µM; in experiment [2] it was 23.6 µM; in experiment [3] it was over 200 µM.
For `S=C1c2ccccc2OC2c3[nH]c4ccccc4c3CCN12` (stereo not given) the same measures were 7.7 µM, 5.6 µM and 4.8 µM.
`O=C1c2cc(Cl)cc(Cl)c2OC2c3[nH]c4ccccc4c3CCN12` (stereo not given): the IC50 in experiment [1] stood at 1.8 µM; in experiment [2], 6.7 µM; in experiment [3], 14.2 µM.
Turning to `Cc1cccc2c1C(=S)N1CCc3c([nH]c4ccccc34)C1O2` (stereo not given), the IC50 was determined as 11 µM in experiment [1], 3.8 µM in experiment [2] and 4.5 µM in experiment [3].
As for `COc1ccc2[nH]c3c(c2c1)CCN1C(=O)c2ccc(C(F)(F)F)cc2OC31` (stereo not given), the IC50 in experiment [1] came to 50.5 µM; in experiment [2], 31.7 µM; in experiment [3], 26.2 µM.
`O=C1c2cc3ccccc3cc2OC2c3[nH]c4ccc(O)cc4c3CCN12` (stereo not given): the results for the IC50 in experiment [1], in experiment [2] and in experiment [3] were 5.6 µM, 5.1 µM and 5.1 µM, respectively.
On to `CCCN(CCC)c1ccc2c(c1)C(=O)N1CCc3c([nH]c4ccccc34)C1O2` (stereo not given), for which the IC50 in experiment [1] is over 200 µM; in experiment [2], 2.3 µM; in experiment [3] it was over 200 µM.
For the compound `COc1ccc2[nH]c3c(c2c1)CCN1C(=O)c2ccsc2N(C)C31` (stereo not given), the IC50 worked out at 26.9 µM in experiment [1], 14.1 µM in experiment [2] and 36.2 µM in experiment [3].
For `COc1ccc2[nH]c3c(c2c1)CCN1C(=O)c2ccc(C)cc2OC31` (stereo not given) the same measures were over 200 µM, over 200 µM and 198 µM.
Consider `O=C1c2c(F)cccc2OC2c3[nH]c4ccccc4c3CCN12` (stereo not given), for which the IC50 was found to be 35.1 µM in experiment [1], 31 µM in experiment [2] and 71 µM in experiment [3].
The corresponding values for `Cc1ccc2c(c1)OC1c3[nH]c4ccccc4c3CCN1C2=O` (stereo not given) are 62.5 µM, 25.5 µM and 97.2 µM.
Consider `COc1ccc2[nH]c3c(c2c1)CCN1C(=O)c2ccc(F)cc2OC31` (stereo not given), for which the values for the IC50 in experiment [1], in experiment [2] and in experiment [3] were over 200 µM, 37.1 µM and 157 µM, respectively.
For `CN1c2ccccc2C(=O)N2CCCc3c(oc4ccc(O)cc34)C21` (stereo not given) the same measures were over 200 µM, over 200 µM and over 200 µM.
`O=C1c2cccc(O)c2OC2c3[nH]c4ccc(O)cc4c3CCN12` (stereo not given): the IC50 was over 200 µM in experiment [1], 53.4 µM in experiment [2] and 66.2 µM in experiment [3].
Regarding `COc1ccc2[nH]c3c(c2c1)CCN1C(=O)c2cc(N)ccc2OC31` (stereo not given), the values for the IC50 in experiment [1], in experiment [2] and in experiment [3] were 114 µM, 42.8 µM and 132 µM, respectively.
The corresponding values for `CC(=O)Nc1ccc2c(c1)C(=O)N1CCc3c([nH]c4ccccc34)C1O2` (stereo not given) are 20.1 µM, 5.8 µM and 19.6 µM.
Take `CN1c2ccn(C)c2C(=O)N2CCc3c([nH]c4ccc(O)cc34)C21` (stereo not given): the IC50 in experiment [1] stood at 5 µM; in experiment [2], 15.4 µM; in experiment [3], 11.7 µM.
Consider `COc1ccc2c(c1)OC1c3[nH]c4ccccc4c3CCN1C2=O` (stereo not given), for which the IC50 in experiment [1] was 174 µM; in experiment [2] it was 71.2 µM; in experiment [3] it was 52.3 µM.
Take `Nc1ccc2c(c1)C(=O)N1CCc3c([nH]c4ccccc34)C1O2` (stereo not given): the IC50 stood at 2.7 µM in experiment [1], 2.3 µM in experiment [2] and 9.1 µM in experiment [3].
Take `CCc1c2c(nc3ccc(OC(=O)N4CCC(N5CCCCC5)CC4)cc13)-c1cc3c(c(=O)n1C2)COC(=O)[C@]3(O)CC` [IRINOTECAN]: the IC50 was 20.1 µM in experiment [1], 18.6 µM in experiment [2] and 6.3 µM in experiment [3].
Consider `O=C1c2ccc(Cl)cc2OC2c3[nH]c4ccc(O)cc4c3CCN12` (stereo not given), for which the IC50 is 10.6 µM in experiment [1], 18.7 µM in experiment [2] and 7.1 µM in experiment [3].
For the compound `COc1ccc2[nH]c3c(c2c1)CCN1C(=O)c2cccc(OC)c2OC31` (stereo not given), the figures for the IC50 in experiment [1], in experiment [2] and in experiment [3] were over 200 µM, 52.7 µM and 80.1 µM, respectively.
Take `COc1ccc2[nH]c3c(c2c1)CCN1C(=O)c2cc(F)ccc2OC31` (stereo not given): the IC50 worked out at 13.1 µM in experiment [1], 25.1 µM in experiment [2] and 36.4 µM in experiment [3].
For `COc1ccc2c(c1)C(=O)N1CCc3c([nH]c4ccc(OC)cc34)C1O2` (stereo not given), the IC50 in experiment [1] amounted to 9.5 µM; in experiment [2], 23.7 µM; in experiment [3], 10.1 µM.
Turning to `CN1c2ccn(C)c2C(=O)N2CCc3c([nH]c4ccccc34)C21` (stereo not given), the IC50 in experiment [1] was over 200 µM; in experiment [2], 76.5 µM; in experiment [3], 207 µM.
As for `COc1ccc2[nH]c3c(c2c1)CCN1C(=O)c2cc([N+](=O)[O-])ccc2OC31` (stereo not given), the IC50 in experiment [1], in experiment [2] and in experiment [3] was over 200 µM each time.
Take `O=C1c2cccc(O)c2OC2c3[nH]c4ccccc4c3CCN12` (stereo not given): the IC50 in experiment [1] was 103 µM; in experiment [2], over 200 µM; in experiment [3], 42.3 µM.
Turning to `O=C1c2cc(Br)ccc2OC2c3[nH]c4ccc(O)cc4c3CCN12` (stereo not given), the IC50 in experiment [1] is 0.06 µM; in experiment [2], under 0.003 µM; in experiment [3] it was under 0.003 µM.
As to `CCNc1ccc2c(c1)C(=O)N1CCc3c([nH]c4ccccc34)C1O2` (stereo not given), the IC50 in experiment [1] was over 200 µM; in experiment [2], 39.4 µM; in experiment [3], over 200 µM.
With `CC(C)C(=O)Nc1ccc2c(c1)C(=O)N1CCc3c([nH]c4ccccc34)C1O2` (stereo not given), the IC50 in experiment [1] came out at 28.4 µM; in experiment [2], 9.4 µM; in experiment [3] it was 11.7 µM.
The corresponding values for `O=C1c2ccc(Cl)cc2OC2c3[nH]c4ccccc4c3CCN12` (stereo not given) are 58.6 µM, 40.6 µM and 34.2 µM.
For `Cc1cccc2c1C(=O)N1CCc3c([nH]c4ccccc34)C1O2` (stereo not given), the values for the IC50 in experiment [1], in experiment [2] and in experiment [3] were over 200 µM, 38.1 µM and over 200 µM, respectively.
Regarding `COc1ccc2oc3c(c2c1)CCCN1C(=O)c2ccccc2N(C)C31` (stereo not given), the IC50 in experiment [1] came to 6.2 µM; in experiment [2] it was 5.3 µM; in experiment [3], 28.4 µM.
For `CC(C)CNc1ccc2c(c1)C(=O)N1CCc3c([nH]c4ccccc34)C1O2` (stereo not given) the same measures were over 200 µM, 5.3 µM and over 200 µM.
As to `O=C1c2cc(I)cc(I)c2OC2c3[nH]c4ccccc4c3CCN12` (stereo not given), the IC50 is over 200 µM in experiment [1], 24.4 µM in experiment [2] and over 200 µM in experiment [3].
As to `O=C1c2ccccc2OC2c3[nH]c4ccc(Cl)cc4c3CCN12` (stereo not given), the IC50 in experiment [1] turned out to be 3.49 µM; in experiment [2], 2.1 µM; in experiment [3] it was 5.59 µM.
`COc1ccc2[nH]c3c(c2c1)CCN1C(=O)c2ccc4ccccc4c2OC31` (stereo not given): the IC50 in experiment [1], in experiment [2] and in experiment [3] was over 200 µM throughout.
Consider `COc1ccc2[nH]c3c(c2c1)CCCN1C(=O)c2ccccc2N(C)C31` (stereo not given), for which the IC50 in experiment [1], in experiment [2] and in experiment [3] was over 200 µM in each case.
As for `O=C1c2cc(F)ccc2OC2c3[nH]c4ccccc4c3CCN12` (stereo not given), the IC50 is 6.6 µM in experiment [1], 5.8 µM in experiment [2] and 46.1 µM in experiment [3].
Turning to `COc1cccc2c1OC1c3[nH]c4ccccc4c3CCN1C2=O` (stereo not given), the half-maximal inhibitory concentration (IC50) in experiment [1] was 26.8 µM; in experiment [2] it was 2.21 µM; in experiment [3], 16.9 µM.
On to `COc1ccc2[nH]c3c(c2c1)CCN1C(=O)c2c(ccc4ccccc24)OC31` (stereo not given), for which the IC50 in experiment [1] was over 200 µM; in experiment [2] it was over 200 µM; in experiment [3] it was 31 µM.
Consider `O=C1c2cc(Cl)ccc2OC2c3[nH]c4ccccc4c3CCN12` (stereo not given), for which the IC50 in experiment [1] came to 0.05 µM; in experiment [2], 1.4 µM; in experiment [3] it was 0.6 µM.
As for `O=C1c2ccc(C(F)(F)F)cc2OC2c3[nH]c4ccccc4c3CCN12` (stereo not given), the IC50 in experiment [1] turned out to be 25.8 µM; in experiment [2], 23.3 µM; in experiment [3], 21.9 µM.
For `CN1c2ccsc2C(=O)N2CCc3c([nH]c4ccccc34)C21` (stereo not given), the IC50 is 111 µM in experiment [1], 192 µM in experiment [2] and over 200 µM in experiment [3].
For the compound `O=C1c2cc(Cl)cc(Cl)c2OC2c3[nH]c4ccc(O)cc4c3CCN12` (stereo not given), the IC50 worked out at 8.6 µM in experiment [1], 7 µM in experiment [2] and 0.3 µM in experiment [3].
